PubChem BioAssay AID1195 (EPA DSSTox, 2008)

System: human maximum recommended daily dose, FDA database
Experiment: DSSTox (FDAMDD) FDA Maximum (Recommended) Daily Dose Database
Settings: hits give low values
Method in brief: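 MRDD values come from clinical trials with daily oral dosing, usually for 3–12 months, for the average adult, in mg/day converted to mg/kg-bw/day assuming 60 kg. Antineoplastic mg/m2 doses are divided by 37. Activity score maps log10(1/MRDD mmol) onto 1–100.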

[1] = TherapeuticCategory: antineoplastic
[2] = TherapeuticCategory: antihypertensive
[3] = TherapeuticCategory: antibacterial

## CCCCCCCCCC(=O)O[C@H]1CC[C@H]2[C@@H]3CCC4=CC(=O)CC[C@@H]4[C@H]3CC[C@]12C
TherapeuticCategory: anabolic
  maximum recommended daily dose (mmol/kg-bw/day): 0.00777

## CN1CC[C@]23c4c5ccc(O)c4O[C@H]2C(=O)CC[C@H]3[C@H]1C5
TherapeuticCategory: analgesic
  maximum recommended daily dose (mmol/kg-bw/day): 0.0014

## CC[C@@]1(O)C[C@H](O[C@H]2C[C@H](N(C)C)[C@H](O[C@H]3C[C@H](O)[C@H](O[C@H]4CCC(=O)[C@H](C)O4)[C@H](C)O3)[C@H](C)O2)c2c(cc3c(c2O)C(=O)c2c(O)cccc2C3=O)[C@H]1C(=O)OC
[1]
  maximum recommended daily dose (mmol/kg-bw/day): 0.00333

## C=C1C[C@@H]2[C@H](CC[C@]3(C)C(=O)CC[C@@H]23)[C@@]2(C)C=CC(=O)C=C12
[1]
  maximum recommended daily dose (mmol/kg-bw/day): 0.00135

## O[C@@H]([C@H](O)[C@@H](O)CBr)[C@@H](O)CBr
[1]
  maximum recommended daily dose (mmol/kg-bw/day): 0.0135

## CC(c1cc2ccccc2s1)N(O)C(N)=O (stereo not drawn)
TherapeuticCategory: antiasthmatic, anti inflammatry
  maximum recommended daily dose (mmol/kg-bw/day): 0.169

## CCC(=O)O[C@@](Cc1ccccc1)(c1ccccc1)[C@@H](C)CN(C)C
TherapeuticCategory: antitussive
  maximum recommended daily dose (mmol/kg-bw/day): 0.00492

## CC(C)(C)NC[C@H](O)COc1ccccc1C1CCCC1
TherapeuticCategory: antihypertensive, antianginal, antiarrhythmic
  maximum recommended daily dose (mmol/kg-bw/day): 0.00456

## Cn1cc[nH]c1=S
TherapeuticCategory: antihyperthyroid
  maximum recommended daily dose (mmol/kg-bw/day): 0.00876

## COc1cc(NC(C)CCCN)c2ncccc2c1 (stereo not drawn)
TherapeuticCategory: antimalarial
  maximum recommended daily dose (mmol/kg-bw/day): 0.00289

## Clc1cccc(Cl)c1NC1=NCCN1
[2]
  maximum recommended daily dose (mmol/kg-bw/day): 0.000174

## CC1(C)S[C@@H]2[C@H](NC(=O)[C@H](NC(=O)N3CCN(S(C)(=O)=O)C3=O)c3ccccc3)C(=O)N2[C@H]1C(=O)O
[3]
  maximum recommended daily dose (mmol/kg-bw/day): 0.495

## COc1cc([C@@H]2c3cc4c(cc3C(O[C@@H]3O[C@@H]5CO[C@@H](C)O[C@H]5[C@H](O)[C@H]3O)C3COC(=O)[C@@H]32)OCO4)cc(OC)c1O (stereo partly drawn)
[1]
  maximum recommended daily dose (mmol/kg-bw/day): 0.00459

## CCCc1nc2c(C)cc(-c3nc4ccccc4n3C)cc2n1Cc1ccc(-c2ccccc2C(=O)O)cc1
[2]
  maximum recommended daily dose (mmol/kg-bw/day): 0.00258

## CCCNC(=O)NS(=O)(=O)c1ccc(Cl)cc1
TherapeuticCategory: antidiabetic
  maximum recommended daily dose (mmol/kg-bw/day): 0.0452

## O=C(c1ccc(F)cc1)C1CCN(CCn2c(=O)[nH]c3ccccc3c2=O)CC1
[2]
  maximum recommended daily dose (mmol/kg-bw/day): 0.00336

## CO[C@@H]1[C@@H](O[C@@H]2O[C@H](C)[C@@H](O[C@H]3C[C@@](C)(O)[C@@H](O)[C@H](C)O3)[C@H](N(C)C)[C@H]2O)[C@@H](CC=O)C[C@@H](C)[C@@H](O[C@@H]2CC[C@H](N(C)C)[C@@H](C)O2)/C=C/C=C/C[C@@H](C)OC(=O)C[C@H]1OC(C)=O
[3]
  maximum recommended daily dose (mmol/kg-bw/day): 0.0754

## COCc1c(C(C)C)nc(C(C)C)c(/C=C/[C@@H](O)C[C@@H](O)CC(=O)O)c1-c1ccc(F)cc1
TherapeuticCategory: antihyperlipoproteinemic
  maximum recommended daily dose (mmol/kg-bw/day): 1.09e-05

## CNS(=O)(=O)CCc1ccc2[nH]cc(C3CCN(C)CC3)c2c1
TherapeuticCategory: antimigraine, vasoconstrictor
  maximum recommended daily dose (mmol/kg-bw/day): 0.000248

## COC1[C@@H](O[C@@H]2O[C@H](C)[C@@H](O[C@H]3C[C@@](C)(O)[C@H](OC(=O)CC(C)C)[C@H](C)O3)[C@H](N(C)C)[C@H]2O)[C@@H](CC=O)C[C@@H](C)[C@@H](O)/C=C/C=C/C[C@@H](C)OC(=O)C[C@H]1OC(C)=O (stereo partly drawn)
[3]
  maximum recommended daily dose (mmol/kg-bw/day): 0.0604

## OCC1COC(CCI)O1 (stereo not drawn)
TherapeuticCategory: expectorant
  maximum recommended daily dose (mmol/kg-bw/day): 0.0155

## N[C@@H](CCC(=O)N[C@@H](CS)C(=O)NCC(=O)O)C(=O)O
TherapeuticCategory: none
  maximum recommended daily dose (mmol/kg-bw/day): 0.0163

## CC(C)(C)c1cc(O)ccc1O
TherapeuticCategory: antioxidant
  maximum recommended daily dose (mmol/kg-bw/day): 0.0012

## CC(C)NCC(O)COc1ccc(CCOCC2CC2)cc1 (stereo not drawn)
TherapeuticCategory: antihypertensive, antiglaucomic
  maximum recommended daily dose (mmol/kg-bw/day): 0.00217

## Cc1ncc2n1-c1ccc(Cl)cc1C(c1ccccc1F)=NC2
TherapeuticCategory: anesthetic
  maximum recommended daily dose (mmol/kg-bw/day): 0.000256

## CC(=O)OC[C@H]1O[C@@H](n2ncc(=O)[nH]c2=O)[C@H](OC(C)=O)[C@@H]1OC(C)=O
TherapeuticCategory: antineoplastic, antipsoriatic
  maximum recommended daily dose (mmol/kg-bw/day): 0.458

## O=c1[nH]c(=O)n(C2CCCO2)cc1F (stereo not drawn) (tested in a mixture with another compound)
[1]
  maximum recommended daily dose (mmol/kg-bw/day): 0.0641

## CC(=O)[C@@]1(O)CC[C@H]2[C@@H]3C=C(Cl)C4=CC(=O)CC[C@]4(C)[C@H]3CC[C@@]21C
TherapeuticCategory: progestogen, antineoplastic
  maximum recommended daily dose (mmol/kg-bw/day): 9.18e-05
